Experimental data: patent US20250213549A1, “COMPOSITION COMPRISING NICOTINAMIDE, NICOTINAMIDE PRECURSORS, NICOTINAMIDE METABOLITES OR COMBINATIONS THEREOF FOR PREVENTING OR REDUCING ONE OR MORE POST-ACUTE SYMPTOMS OF INFECTIOUS DISEASES” (CONARIS Research Institute AG, priority 2022, published 2025)

Columns and labels:
[1] = test system: COVID-19 patients (PCS symptoms); assay: Patient Health Questionnaire Depression (PHQ-8) at 6-month follow-up, COVit-2 pilot population; assay type: in vivo, human; conditions: pilot population n=50
Text: (§1) In the monocentric, randomized, double-blind, prospective, placebo-controlled dietary intervention trial COVit-2 (DRKS00021214; NCT04751604) conducted at the Department of Internal Medicine I of the University Medical Center Schleswig-Holstein, Campus Kiel (Germany), outpatients with early symptomatic COVID-19 (up to 7 days after their first positive SARS-CoV-2 PCR test) in domestic quarantine were recruited from February 2021 to January 2022. […]
(§2) Approximately 6 months after infection, patients were contacted for follow-up interviews and a large battery of questionnaires and tests including antibody level measurements. […] A validated smell test (University of Pennsylvania Smell Identification Test™; Sensonics/MediSense) was performed by the patient and recorded as patient-reported outcome by a paper questionnaire. Questionnaires on olfactory and gustatory abilities (incl. the Self-reported Mini Olfactory Questionnaire, Self-MOQ, and the Questionnaire of Olfactory Disorders, QOD), respiration (Multidimensional Dyspnea Profile, MDP), mental state (Patient Health Questionnaire Depression, PHQ-8; Generalised Anxiety Disorder 7, GAD-7; Perceived Stress Scale, PSS; Brief Resilience Scale, BRS), sleep quality (Pittsburgh Sleep Quality Index, PSQI) and fatigue (Multidimensional Fatigue Inventory, MFI) were recorded as patient-reported outcomes by paper questionnaires. […]

[2] = test system: COVID-19 patients; assay: Impaired sense of taste at 6 months after COVID-19, COVit-2 risk factor population; assay type: in vivo, human
Text: (§3) For details of the trial, see Wätzig & Schreiber 2021, PCT/EP2021/083138. Patients were randomized to oral self-administration (once daily with breakfast for 28 days) of either a combination of two different nicotinamide tablets (one conventional 500-mg immediate-release nicotinamide tablet and one novel 500-mg controlled-ileocolonic-release nicotinamide [CICR-NAM]tablet, which ensures prolonged and continuous intestinal exposure to nicotinamide) or matching placebo tablets. The entire trial was conducted remotely. Patients registered online and were contacted by the study team to check their eligibility and to supply the written patient information and informed consent forms. After informed consent, patients were called for baseline data acquisition (week 0) and subsequently at week 2, week 4 and week 6. The queried baseline information included personal and demographic data, smoking status, comorbidities, concomitant administration of dietary supplements or medicaments as well as COVID-19 symptoms. […]
(§4) Approximately 6 months after infection, patients were contacted for follow-up interviews and a large battery of questionnaires and tests including antibody level measurements. […] A validated smell test (University of Pennsylvania Smell Identification Test™; Sensonics/MediSense) was performed by the patient and recorded as patient-reported outcome by a paper questionnaire. […]

[3] = test system: COVID-19 patients (PCS symptoms); assay: Perceived Stress Scale (PSS) at 6-month follow-up, COVit-2 pilot population; assay type: in vivo, human; conditions: pilot population n=50
Text: as §1, §2

[4] = test system: antibodies directed against the nucleocapsid (N) protein of SARS-CoV-2; assay: Anti-N antibody levels (AProof Duo Test ELISA) at 6-month follow-up, COVit-2 trial; assay type: in vivo, human
[5] = test system: COVID-19 patients; conditions: week 2; of 92 patients treated with nicotinamide
[6] = test system: COVID-19 patients; assay: Impaired sense of smell at 6 months after COVID-19, COVit-2 risk factor population; assay type: in vivo, human
Text: as §3, §4

[7] = test system: COVID-19 patients; assay: Impaired sense of taste in acute COVID-19 (patient interviews, change to baseline), COVit-2 risk factor population; assay type: in vivo, human; conditions: for Impaired sense of taste: Persistence (no change), frequency / Impaired sense of taste: Resolution of impairment (return to normal), frequency / Impaired sense of taste: Worsening (new impairment), frequency: number of patients
Text: (§5) In the monocentric, randomized, double-blind, prospective, placebo-controlled dietary intervention trial COVit-2 (DRKS00021214; NCT04751604) conducted at the Department of Internal Medicine I of the University Medical Center Schleswig-Holstein, Campus Kiel (Germany), outpatients with early symptomatic COVID-19 (up to 7 days after their first positive SARS-CoV-2 PCR test) in domestic quarantine were recruited from February 2021 to January 2022. As the vaccinations against SARS-CoV-2 became available to the broader public only after several hundred patients had already been recruited into the COVit-2 trial, partly or fully vaccinated patients were excluded from participation to maintain the same inclusion population and ensure formal comparability of all patients within the trial. However, there is no reason or evidence to assume that the fundamental metabolic and microbiota-targeting effects of nicotinamide could be any different in symptomatic COVID-19 patients with or without prior vaccination.
(§6) For details of the trial, see Wätzig & Schreiber 2021, PCT/EP2021/083138. Patients were randomized to oral self-administration (once daily with breakfast for 28 days) of either a combination of two different nicotinamide tablets (one conventional 500-mg immediate-release nicotinamide tablet and one novel 500-mg controlled-ileocolonic-release nicotinamide [CICR-NAM]tablet, which ensures prolonged and continuous intestinal exposure to nicotinamide) or matching placebo tablets. The entire trial was conducted remotely. Patients registered online and were contacted by the study team to check their eligibility and to supply the written patient information and informed consent forms. After informed consent, patients were called for baseline data acquisition (week 0) and subsequently at week 2, week 4 and week 6. The queried baseline information included personal and demographic data, smoking status, comorbidities, concomitant administration of dietary supplements or medicaments as well as COVID-19 symptoms. At weeks 2, 4 and 6, regular intake of the trial supplements and concomitant supplements and medicaments, respectively, was queried as well as the current COVID-19 symptoms and disease course.
(§7) The COVit-2 trial (see Example 2) was expanded to a total of n=900 randomized patients. Of these, n=500 patients had at least one characteristic or underlying medical condition associated with an increased risk of developing severe illness from COVID-19, which was the population that had benefited most from nicotinamide supplementation in the acute phase of the disease (Wätzig & Schreiber 2021, PCT/EP2021/083138) and is hereinafter referred to as ‘risk factor population’.
(§8) In contrast, in the final analysis of n=500 patients of the risk factor population (the primary analysis population for acute COVID-19 in the COVit-2 trial), there was rather a trend favouring placebo, as evidenced by the rates of resolved, constant or newly occurring impairment shown in Table 2 to Table 5 below.
(§9) Here, the efficacy variables “impaired sense of smell” (yes/no) and “impaired sense of taste” (yes/no) from patient interviews represent the broadest and most sensitive approach, as other more specific tests or questions miss aspects of smell or taste that are not explicitly queried and thus may fail to detect significant differences. In the acute phase of the COVit-2 trial, these variables were analyzed using change to baseline, considered as resolution (symptom present at baseline but not at week x), persistence (no change compared to baseline) or worsening (symptom present at week x but not at baseline). The frequency of patients with symptom resolution, persistence or worsening for all weeks by treatment group was compared using the Cochran-Mantel-Haenszel test. Post-hoc tests for each week were calculated using the Fisher Exact test with Benjamini & Hochberg adjustment for multiple testing. The Woolfe test was performed to test for homogeneity of odds ratios across time. […]

[8] = test system: COVID-19 patients (PCS symptoms); assay: Cognition test T3MS at 6-month follow-up, COVit-2 pilot population; assay type: in vivo, human
Text: as §1, §2

[9] = test system: COVID-19 patients (PCS); assay: PCS score at 6 months after COVID-19 in PCS risk factor population, COVit-2; conditions: PCS risk factor population (more than 5 predictors), N = 70
Text: In this PCS score, 12 long-term symptom complexes (fatigue, cough/wheezing, neurological ailments, joint/muscle pain, ear-nose-throat ailments, gastrointestinal ailments, sleeping disturbance, exercise intolerance, infection signs, chemosensory deficits, chest pain and dermatological ailments) are combined with different weights.
In order to characterize a relevant subpopulation of the risk factor population as defined above that was additionally at risk for the development of PCS, baseline characteristics and symptoms of all available patients of the placebo population (n=425) were used to identify predictors for a PCS score of ≥5 at month 6 with a significance threshold of P<0.05. These predictors were the following: • medical history: chronic obstructive pulmonary disease, organ transplantation, depression, other chronic diseases, permanent intake of medication; • symptoms from the onset of COVID-19 until the trial baseline: shortness of breath, whistling/wheezing breathing, dizziness, vomiting, conjunctivitis; • at baseline: shortness of breath, whistling/wheezing breathing, dizziness, conjunctivitis, chills, muscle pain, limb pain, limitation of activity (a score of 2 in the WHO scale of COVID-19 severity developed in 2020; https://apps.who.int/iris/rest/bitstreams/1266940/retrieve, last accessed on 20 Mar. […]

[10] = test system: antibodies directed against the spike (S) protein of SARS-CoV-2; assay: Anti-S antibody levels (AProof Duo Test ELISA) at 6-month follow-up, COVit-2 trial; assay type: in vivo, human
Text: as §5, §6
For the antibody level measurements, the time between the positive SARS-CoV-2 PCR test and the date of blood sampling for antibody analysis as well as, if applicable, the intervals between one or more subsequent vaccinations against SARS-CoV-2 and the blood sampling date were recorded. Antibody levels were measured using the AProof Duo Test (Adversis Pharma, now AP Diagnostics; Leipzig, Germany). In this test, dried blood spot samples are rehydrated and analysed by ELISAs detecting antibodies directed against the nucleocapsid (N) or spike (S) protein of SARS-CoV-2. Antibodies against the N protein are analysed to evaluate immunity generated only by SARS-CoV-2 infection. After infection with SARS-CoV-2, levels of antibodies against the S protein can represent both the consequences of infection (if no additional vaccination is performed) or of the combined humoral immunity generated by infection and subsequent vaccination(s). Between the 6-week observation period of the acute infection and the follow-up after at least 6 months, many trial participants had been vaccinated against SARS-CoV-2. Anti-N antibody levels were quantified as percent of the signal of a positive control consisting of an anti-N antibody pool from five donors collected at different time points starting 2 weeks after PCR-confirmed infection with SARS-CoV-2. This anti-N antibody pool was diluted in the negative control medium at a fixed ratio. The detection was considered negative if below 20% of the positive control, borderline for 20-30% and positive if above 30%. Anti-S antibody protein levels were quantified as binding antibody units per milliliter (BAU/mL; according to the WHO International Standard for anti-SARS-CoV-2 immunoglobulin [human][NIBSC code 20/136]). […]

[11] = test system: COVID-19 patients (PCS symptoms); assay: Generalised Anxiety Disorder 7 (GAD-7) at 6-month follow-up, COVit-2 pilot population; assay type: in vivo, human; conditions: pilot population n=50
Text: as §1, §2

[12] = test system: COVID-19 patients; assay: Impaired sense of smell in acute COVID-19 (patient interviews, change to baseline), COVit-2 risk factor population; assay type: in vivo, human; conditions: for Impaired sense of smell: Persistence (no change), frequency / Impaired sense of smell: Resolution of impairment (return to normal), frequency / Impaired sense of smell: Worsening (new impairment), frequency: number of patients
Text: as §5, §6, §7, §8, §9

[13] = test system: COVID-19 patients; conditions: acute phase, baseline until Week 6, mainly at week 2; interim analysis n=402; cited from earlier work
[14] = test system: COVID-19 patients (PCS symptoms); assay: University of Pennsylvania Smell Identification Test (UPSIT) at 6-month follow-up, COVit-2 pilot population; assay type: in vivo, human; conditions: pilot population n=50
Text: as §1, §2

[15] = 6 months after COVID-19, N = 236
[16] = first 50 patients per trial arm
[17] = n=50, negative if below 20% of positive control
[18] = n=50, positive if above 30% of positive control
[19] = acute phase, baseline until Week 6
[20] = n=50, negative if below 22 BAU/mL
[21] = n=50, positive if above 44 BAU/mL

Structure (SMILES): NC(=O)c1cccnc1 [Nicotinamide, nicotinamide]
- median PHQ-8 score [1]: 4
- Impaired sense of taste, % of patients [2, 15]: 8.05%
- effect on frequency of impaired sense of taste ([2]; after six months): significantly reduced frequencies
- median PSS score [3]: 24
- Anti-N antibodies, median [4, 16]: 10% + control
- Anti-N antibodies, % negative [4, 17]: 66%
- Anti-N antibodies, n negative [4, 17]: 33
- Anti-N antibodies, % positive [4, 18]: 28%
- Anti-N antibodies, n positive [4, 18]: 14
- shortness of breath: patients recovered [5]: 56
- Impaired sense of smell, % of patients [6, 15]: 11.02%
- effect on frequency of impaired sense of smell ([6]; after six months): significantly reduced frequencies
- Impaired sense of taste: Persistence (no change), frequency ([7]; Week 2): 170
- Impaired sense of taste: Resolution of impairment (return to normal), frequency ([7]; Week 2): 56
- Impaired sense of taste: Worsening (new impairment), frequency ([7]; Week 2): 22
- Impaired sense of taste: Persistence (no change), frequency ([7]; Week 4): 159
- Impaired sense of taste: Resolution of impairment (return to normal), frequency ([7]; Week 4): 74
- Impaired sense of taste: Worsening (new impairment), frequency ([7]; Week 4): 15
- Impaired sense of taste: Persistence (no change), frequency ([7]; Week 6): 157
- Impaired sense of taste: Resolution of impairment (return to normal), frequency ([7]; Week 6): 83
- Impaired sense of taste: Worsening (new impairment), frequency ([7]; Week 6): 8
- effect on impaired sense of taste [7, 19]: no beneficial effect
- proportion of patients with mild cognitive impairment (T3MS score <89) ([8]; patients with increased risk of developing severe COVID-19): 10%
- proportion of patients with mild cognitive impairment (T3MS score <89) ([8]; pilot population n=50): 8%
- PCS score, mean [9]: 3.66
- Anti-S antibodies, median [10, 16]: 813 BAU/mL
- Anti-S antibodies, % negative [10, 20]: 2%
- Anti-S antibodies, n negative [10, 20]: 1
- Anti-S antibodies, % positive [10, 21]: 94%
- Anti-S antibodies, n positive [10, 21]: 47
- Anti-S antibodies, median ([10]; patients with at least one characteristic or condition associated with increased risk of severe COVID-19): 1,121 BAU/mL
- median GAD-7 score [11]: 3
- Impaired sense of smell: Persistence (no change), frequency ([12]; Week 2): 155
- Impaired sense of smell: Resolution of impairment (return to normal), frequency ([12]; Week 2): 61
- Impaired sense of smell: Worsening (new impairment), frequency ([12]; Week 2): 32
- Impaired sense of smell: Persistence (no change), frequency ([12]; Week 4): 150
- Impaired sense of smell: Resolution of impairment (return to normal), frequency ([12]; Week 4): 78
- Impaired sense of smell: Worsening (new impairment), frequency ([12]; Week 4): 20
- Impaired sense of smell: Persistence (no change), frequency ([12]; Week 6): 141
- Impaired sense of smell: Resolution of impairment (return to normal), frequency ([12]; Week 6): 92
- Impaired sense of smell: Worsening (new impairment), frequency ([12]; Week 6): 15
- effect on impaired sense of smell [12, 19]: no beneficial effect
- benefit with regard to parameters of physical performance [13]: biologically and statistically significant benefit
- proportion of patients with strong microsmia/hyposmia (UPSIT score <26) [14]: 2%
